Laboratory results from the supplement of paper PMC10307832.

Legend:
Assay in all cases: relative viability (nuclei count vs DMSO), 5 days (fraction); higher = more cells survive
[1] = compound: CCOC1=CC=CC=C1N=NC2=C(NN(C2=O)C3=NC(=CS3)C4=CC=CC=C4)C [BAM7]
Method in brief: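 On vehicle-anchored 1536-well plates, lung cancer cell lines held overnight at 37 °C were pinned with five library-drug doses (not always all listed) spaced by √10. With no medium change over 5 days, they were then fixed, permeabilised and Hoechst-stained in one step and imaged at 4×. MetaXpress counted nuclei, and viability is the median across plates of treated-well over vehicle-well nuclei. Acceptance needed control CV below 25% and at least one doubling.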

[2] = compound: CCOC1=CC=CC=C1N=NC2=C(NN(C2=O)C3=NC(=CS3)C4=CC=CC=C4)C [BAM7] + CC(C)C[C@H](NC(=O)[C@H](Cc1ccccc1)NC(=O)c1cnccn1)B(O)O [Bortezomib] (partner 0.002 µM)
Method in brief: (§1)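 A single step with final 0.05% Triton X-100, 1% formaldehyde and 1 ug/ml Hoechst fixed the cells and stained nuclei 5 days after treatment. Lung cancer cell lines in 1536-well plates had been treated by pin tool the day after seeding with one drug alone or a fixed anchor-drug dose plus five library-drug doses (not always all listed) in √10 steps, and nuclei were counted on 4× images. Relative viability is the ratio of nuclei in treated wells to nuclei in vehicle wells, taken as the median of duplicate plates.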

[3] = compound: CCOC1=CC=CC=C1N=NC2=C(NN(C2=O)C3=NC(=CS3)C4=CC=CC=C4)C [BAM7] + Nc1nc2[nH]cc(CCc3ccc(C(=O)N[C@@H](CCC(=O)O)C(=O)O)cc3)c2c(=O)[nH]1 [Pemetrexed] (partner 0.2 µM)
Method in brief: as §1

[4] = compound: CCn1c(-c2nonc2N)nc2c(C#CC(C)(C)O)ncc(OC[C@H]3CCCNC3)c21 + N=C(N)NC(=N)NCCc1ccccc1 [Phenformin] (partner 250 µM)
Method in brief: as §1

For 201T, the relative viability ([1]; 0.5 µM) was 0.918, the relative viability ([1]; 5 µM) was 0.865 and the relative viability ([1]; 15.81 µM) was 0.793. It also gave a relative viability ([1]; 50 µM) of 0.861, a relative viability ([2]; first compound 0.5 µM) of 1.05 and a relative viability ([2]; first compound 5 µM) of 1.13. The relative viability ([2]; first compound 15.81 µM) was 0.925, the relative viability ([2]; first compound 50 µM) was 0.987 and the relative viability ([3]; first compound 0.5 µM) was 0.299. For the same cell line, the relative viability ([3]; first compound 5 µM) was 0.324, the relative viability ([3]; first compound 15.81 µM) was 0.327 and the relative viability ([3]; first compound 50 µM) was 0.313. It also gave a relative viability ([4]; first compound 0.01 µM) of 0.455, a relative viability ([4]; first compound 0.03162 µM) of 0.438 and a relative viability ([4]; first compound 0.1 µM) of 0.437. It also gave a relative viability ([4]; first compound 0.3162 µM) of 0.435 and a relative viability ([4]; first compound 1 µM) of 0.431.

A549 gave a relative viability ([1]; 0.5 µM) of 1.01, a relative viability ([1]; 5 µM) of 1.07 and a relative viability ([1]; 15.81 µM) of 0.948. It also gave a relative viability ([1]; 50 µM) of 1.03, a relative viability ([4]; first compound 0.01 µM) of 0.197 and a relative viability ([4]; first compound 0.03162 µM) of 0.212. For the same cell line, the relative viability ([4]; first compound 0.1 µM) was 0.164, the relative viability ([4]; first compound 0.3162 µM) was 0.17 and the relative viability ([4]; first compound 1 µM) was 0.154.

Work on A-427 yielded a relative viability ([1]; 0.5 µM) of 1.05, a relative viability ([1]; 5 µM) of 1.08 and a relative viability ([1]; 15.81 µM) of 1. For the same cell line, the relative viability ([1]; 50 µM) was 1.09, the relative viability ([2]; first compound 0.5 µM) was 0.965 and the relative viability ([2]; first compound 5 µM) was 0.978. It also gave a relative viability ([2]; first compound 15.81 µM) of 0.893, a relative viability ([2]; first compound 50 µM) of 1.04 and a relative viability ([3]; first compound 0.5 µM) of 1.02. The relative viability ([3]; first compound 5 µM) was 0.935, the relative viability ([3]; first compound 15.81 µM) was 0.93 and the relative viability ([3]; first compound 50 µM) was 1.04. It also gave a relative viability ([4]; first compound 0.01 µM) of 0.315, a relative viability ([4]; first compound 0.03162 µM) of 0.387 and a relative viability ([4]; first compound 0.1 µM) of 0.263. For the same cell line, the relative viability ([4]; first compound 0.3162 µM) was 0.339 and the relative viability ([4]; first compound 1 µM) was 0.326.

For ABC-1, the relative viability ([1]; 0.5 µM) was 0.919, the relative viability ([1]; 5 µM) was 1.05 and the relative viability ([1]; 15.81 µM) was 0.855. For the same cell line, the relative viability ([1]; 50 µM) was 1.14, the relative viability ([2]; first compound 0.5 µM) was 0.326 and the relative viability ([2]; first compound 5 µM) was 0.355. It also gave a relative viability ([2]; first compound 15.81 µM) of 0.295, a relative viability ([2]; first compound 50 µM) of 0.383 and a relative viability ([4]; first compound 0.01 µM) of 0.244. The relative viability ([4]; first compound 0.03162 µM) was 0.204, the relative viability ([4]; first compound 0.1 µM) was 0.236 and the relative viability ([4]; first compound 0.3162 µM) was 0.228. For the same cell line, the relative viability ([4]; first compound 1 µM) was 0.255.

BEN was tested, and the relative viability ([1]; 0.5 µM) was 1.04, the relative viability ([1]; 5 µM) was 1.05 and the relative viability ([1]; 15.81 µM) was 1.11. It also gave a relative viability ([1]; 50 µM) of 0.981, a relative viability ([2]; first compound 0.5 µM) of 0.823 and a relative viability ([2]; first compound 5 µM) of 0.825. The relative viability ([2]; first compound 15.81 µM) was 1.02, the relative viability ([2]; first compound 50 µM) was 0.976 and the relative viability ([3]; first compound 0.5 µM) was 0.74. For the same cell line, the relative viability ([3]; first compound 5 µM) was 0.88, the relative viability ([3]; first compound 15.81 µM) was 0.98 and the relative viability ([3]; first compound 50 µM) was 1. It also gave a relative viability ([4]; first compound 0.01 µM) of 0.276, a relative viability ([4]; first compound 0.03162 µM) of 0.292 and a relative viability ([4]; first compound 0.1 µM) of 0.28. The relative viability ([4]; first compound 0.3162 µM) was 0.297 and the relative viability ([4]; first compound 1 µM) was 0.287.

Work on CAL-12T yielded a relative viability ([1]; 0.5 µM) of 1.05, a relative viability ([1]; 5 µM) of 1.01 and a relative viability ([1]; 15.81 µM) of 0.952. For the same cell line, the relative viability ([1]; 50 µM) was 1.07, the relative viability ([2]; first compound 0.5 µM) was 0.986 and the relative viability ([2]; first compound 5 µM) was 0.97. It also gave a relative viability ([2]; first compound 15.81 µM) of 1, a relative viability ([2]; first compound 50 µM) of 1.09 and a relative viability ([3]; first compound 0.5 µM) of 1.31. For the same cell line, the relative viability ([3]; first compound 5 µM) was 1.27, the relative viability ([3]; first compound 15.81 µM) was 0.987 and the relative viability ([3]; first compound 50 µM) was 1.31. It also gave a relative viability ([4]; first compound 0.01 µM) of 0.506, a relative viability ([4]; first compound 0.03162 µM) of 0.579 and a relative viability ([4]; first compound 0.1 µM) of 0.588. It also gave a relative viability ([4]; first compound 0.3162 µM) of 0.554 and a relative viability ([4]; first compound 1 µM) of 0.469.

COR-L23 was tested, and the relative viability ([1]; 0.5 µM) was 0.982, the relative viability ([1]; 5 µM) was 1.07 and the relative viability ([1]; 15.81 µM) was 0.966. It also gave a relative viability ([1]; 50 µM) of 1.01, a relative viability ([2]; first compound 0.5 µM) of 1.03 and a relative viability ([2]; first compound 5 µM) of 1.06. The relative viability ([2]; first compound 15.81 µM) was 0.845, the relative viability ([2]; first compound 50 µM) was 0.916 and the relative viability ([3]; first compound 0.5 µM) was 0.209. It also gave a relative viability ([3]; first compound 5 µM) of 0.182, a relative viability ([3]; first compound 15.81 µM) of 0.193 and a relative viability ([3]; first compound 50 µM) of 0.206. It also gave a relative viability ([4]; first compound 0.01 µM) of 0.444, a relative viability ([4]; first compound 0.03162 µM) of 0.399 and a relative viability ([4]; first compound 0.1 µM) of 0.422. It also gave a relative viability ([4]; first compound 0.3162 µM) of 0.373 and a relative viability ([4]; first compound 1 µM) of 0.389.

Work on COR-L 105 yielded a relative viability ([1]; 0.5 µM) of 0.833, a relative viability ([1]; 5 µM) of 0.909 and a relative viability ([1]; 15.81 µM) of 0.95. The relative viability ([1]; 50 µM) was 1.14, the relative viability ([2]; first compound 0.5 µM) was 0.747 and the relative viability ([2]; first compound 5 µM) was 0.831. It also gave a relative viability ([2]; first compound 15.81 µM) of 0.854, a relative viability ([2]; first compound 50 µM) of 1.03 and a relative viability ([3]; first compound 0.5 µM) of 1.02. The relative viability ([3]; first compound 5 µM) was 1.31, the relative viability ([3]; first compound 15.81 µM) was 1.01 and the relative viability ([3]; first compound 50 µM) was 1.15. The relative viability ([4]; first compound 0.01 µM) was 0.407, the relative viability ([4]; first compound 0.03162 µM) was 0.516 and the relative viability ([4]; first compound 0.1 µM) was 0.468. For the same cell line, the relative viability ([4]; first compound 0.3162 µM) was 0.417 and the relative viability ([4]; first compound 1 µM) was 0.463.

Cell Line Calu-6 has a relative viability ([1]; 0.5 µM) of 1.07, a relative viability ([1]; 5 µM) of 1.06 and a relative viability ([1]; 15.81 µM) of 0.989. It also gave a relative viability ([1]; 50 µM) of 0.995, a relative viability ([2]; first compound 0.5 µM) of 0.969 and a relative viability ([2]; first compound 5 µM) of 0.986. The relative viability ([2]; first compound 15.81 µM) was 0.94 and the relative viability ([2]; first compound 50 µM) was 1.01.

For ChaGo-K-1, the relative viability ([1]; 0.5 µM) was 0.966, the relative viability ([1]; 5 µM) was 1.02 and the relative viability ([1]; 15.81 µM) was 1.01. For the same cell line, the relative viability ([1]; 50 µM) was 0.92, the relative viability ([2]; first compound 0.5 µM) was 0.861 and the relative viability ([2]; first compound 5 µM) was 1.09. It also gave a relative viability ([2]; first compound 15.81 µM) of 1.14, a relative viability ([2]; first compound 50 µM) of 0.969 and a relative viability ([3]; first compound 0.5 µM) of 0.256. The relative viability ([3]; first compound 5 µM) was 0.257, the relative viability ([3]; first compound 15.81 µM) was 0.249 and the relative viability ([3]; first compound 50 µM) was 0.272. For the same cell line, the relative viability ([4]; first compound 0.01 µM) was 0.462, the relative viability ([4]; first compound 0.03162 µM) was 0.508 and the relative viability ([4]; first compound 0.1 µM) was 0.502. The relative viability ([4]; first compound 0.3162 µM) was 0.438 and the relative viability ([4]; first compound 1 µM) was 0.469.

EBC-1 was tested, and the relative viability ([1]; 0.5 µM) was 1.05, the relative viability ([1]; 5 µM) was 1.04 and the relative viability ([1]; 15.81 µM) was 0.952. The relative viability ([1]; 50 µM) was 1.06, the relative viability ([2]; first compound 0.5 µM) was 0.497 and the relative viability ([2]; first compound 5 µM) was 0.503. It also gave a relative viability ([2]; first compound 15.81 µM) of 0.531 and a relative viability ([2]; first compound 50 µM) of 0.574.
